Test results: patent US11384126B2, “Compositions and methods for inhibiting DHHC-type palmitoyltransferases for cancer treatment” (DANA-FARBER CANCER INSTITUTE, INC., priority 2017, dated 2022)

What was measured:
MDA-MB-231 cells = test: apoptotic cell death, caspase-3 blot after chemotherapeutic agents; type: cell-based, human; conditions: for cell sensitivity to drug (apoptotic cell death, caspase-3) when zDHHC3 is ablated: MDA-MB-231, 25 hr, D3 shRNA vs control shRNA, Camptothecin 2 μM, Gefitinib 50 μM, 5-Fluorouracil 10 μg/ml
Protocol: Specifically, human breast carcinoma MDA-MB-231 cells were treated with Camptothecin (2 μM), Gefitinib (50 μM), 5-Fluorouracil (10 μg/ml), or DMSO (vehicle control), for 25 hr, lysed, then blotted for caspase-3, to assess apoptotic cell death. C=control shRNA; D3=stable DHHC3 ablation; D3^R=shRNA knockdown cells reconstituted with wild type DHHC3; D3^M=mutant DHHC3 (inactivated by C→S active site mutation).

[1] = test system: ZDHHC3-ablated MDA-MB-231 cells; test: oxidative stress/ROS, CellROX dye, flow cytometry; type: cell-based, human; conditions: for direct and indirect effects of oxidative stress in ZDHHC3-ablated cells: summary statement; for effect on oxidative stress/ROS elevated by ZDHHC3 ablation: ZDHHC3-ablated MDA-MB-231 cells, CellROX
Protocol: To assess oxidative stress/reactive oxygen species (ROS), control and ZDHHC3-ablated tumor cells were trypsinized and suspended in complete medium. After PBS wash, cells were loaded with 2 μM CellROX dye in complete medium (37° C., 30 min). Cells were then washed twice with IX PBS, incubated in complete media (37° C., 30 min), washed twice again with 1×PBS, and then analyzed by flow cytometry. Similarly, senescence was measured by loading suspended control and ZDHHC3 ablated cells with C12FDG dye (30 min, 37° C.) in complete medium. The C12FDG dye is converted by intracellular β-galactosidase (elevated in senescent cells) to produce fluorescence, which was quantitated by flow cytometry. […] Increased oxidative stress can decrease tyrosine phosphatase activities (Tanner et al., 2011 Antioxid Redox Signal, 15:77-97), which can elevate tyrosine phosphorylation of focal adhesion kinase (FAK) and STAT3 proteins (Carballo et al., 1999 J Biol Chem, 274:17580-6; Ben et al., 2000 IUBMB Life, 50:291-9).

[2] = test system: focal adhesion kinase (FAK); test: FAK tyrosine phosphorylation, immunoprecipitation and western blotting; type: cell-based, human; conditions: control and ZDHHC3-ablated MDA-MB-231 cells, FIG. 2C upper panels
From the text: Increased oxidative stress can decrease tyrosine phosphatase activities (Tanner et al., 2011 Antioxid Redox Signal, 15:77-97), which can elevate tyrosine phosphorylation of focal adhesion kinase (FAK) and STAT3 proteins (Carballo et al., 1999 J Biol Chem, 274:17580-6; Ben et al., 2000 IUBMB Life, 50:291-9).

MCP-1 = MCP-1 secretion (senescence-associated), western blotting; type: cell-based, human; conditions: MDA-MB-231 cells, FIG. 2C bottom panel
Protocol: Cells were cultured in DMEM and/or RPMI medium (Invitrogen, Grand Island, N.Y.) containing 10% FBS (Sigma, Mo.), HEPES and 1% penicillin-streptomycin (Invitrogen, Grand Island, N.Y.). […] Cultured cells were lysed in 1% Triton X-100, and total protein was quantified using BCA protein estimation kit. Western blotting and relative band intensity densitometry were described previously (Sharma et al., 2012 Cell Mol Life Sci, 69:2233-44).

ZDHHC3-ablated cells = test: senescence, C12FDG dye (β-galactosidase), flow cytometry; type: cell-based, human; conditions: summary statement
Protocol: To assess oxidative stress/reactive oxygen species (ROS), control and ZDHHC3-ablated tumor cells were trypsinized and suspended in complete medium. After PBS wash, cells were loaded with 2 μM CellROX dye in complete medium (37° C., 30 min). Cells were then washed twice with IX PBS, incubated in complete media (37° C., 30 min), washed twice again with 1×PBS, and then analyzed by flow cytometry. Similarly, senescence was measured by loading suspended control and ZDHHC3 ablated cells with C12FDG dye (30 min, 37° C.) in complete medium. The C12FDG dye is converted by intracellular β-galactosidase (elevated in senescent cells) to produce fluorescence, which was quantitated by flow cytometry.

DHHC proteins = conditions: literature: Jennings et al., 2008; cited from earlier work

Row | SMILES | cell sensitivity to drug (apoptotic cell death, caspase-3) when zDHHC3 is ablated (MDA-MB-231 cells) | direct and indirect effects of oxidative stress in ZDHHC3-ablated cells [1] | effect on ZDHHC3 ablation-induced FAK tyrosine phosphorylation [2] | MCP-1 upregulation in ZDHHC3-ablated cells (MCP-1) | increased senescence measured by β-galactosidase activity and/or SASP marker MCP-1 (ZDHHC3-ablated cells) | also measured
1 | COc1cc2ncnc(Nc3ccc(F)c(Cl)c3)c2cc1OCCCN1CCOCC1 [Gefitinib] | not enhanced |  |  |  |  | 
2 | CC(C)c1c(C(=O)Nc2ccccc2)c(-c2ccccc2)c(-c2ccc(F)cc2)n1CC[C@@H](O)C[C@@H](O)CC(=O)O [atorvastatin] |  | substantially reversed | substantially prevented | markedly diminished | substantially reversed | 
3 | CC(=O)N[C@@H](CS)C(=O)O [NAC, N-acetyl cysteine] |  | substantially reversed | substantially prevented | markedly diminished | substantially reversed | effect on oxidative stress/ROS elevated by ZDHHC3 ablation [1]: substantially prevented; effect on oxidative stress/ROS elevated by ZDHHC3 ablation ([1]; listed as N-acetyl cysteine): partial reversal
4 | CC[C@@]1(O)C(=O)OCc2c1cc1n(c2=O)Cc2cc3ccccc3nc2-1 [camptothecin] | enhanced |  |  |  |  | cell sensitivity to drug (caspase-3) with inactive DHHC3 (D3M) compared to fully functional DHHC3 (D3R) (MDA-MB-231 cells; zDHHC3-ablated MDA-MB-231 reconstituted, lane 10 vs lane 9): markedly enhanced
5 | O=C(O)CCCCC1CCSS1 (stereo not drawn) [α-LA, α-lipoic acid] |  | substantially reversed | substantially prevented | markedly diminished | substantially reversed | effect on oxidative stress/ROS elevated by ZDHHC3 ablation [1]: substantially prevented
6 | O=C1C(=Cc2cc([N+](=O)[O-])ccc2O)Sc2ccccc21 [2-(2-hydroxy-5-nitro-benzylidene)-benzo[b]thiophen-3-one] |  |  |  |  |  | palmitoyltransferase activity of all DHHC proteins tested (DHHC proteins): inhibited
7 | O=c1[nH]cc(F)c(=O)[nH]1 [5-Fu, 5-Fluorouracil] | enhanced |  |  |  |  | 
8 | CCCCCCCCCCCCCCC(Br)C(=O)O (stereo not drawn) [2-bromopalmitate] |  |  |  |  |  | palmitoyltransferase activity of all DHHC proteins tested (DHHC proteins): inhibited
